Assay: In vitro liposome fractionation assay
Format: binding
Conditions: 5 μg protein, 15 minute incubation, centrifugation, SDS-PAGE
Description: FIG. 51. Recombinant tTG can associate with lipid vesicles lacking any protein content. Synthetic liposomes were prepared by extrusion and then equal amounts of this preparation were combined with either 5 μg recombinant tTG (tTG WT) or 5 μg bovine serum albumin (BSA). After a 15 minute incubation, the liposomes were pelleted by centrifugation, and the resulting supernatant (Sup) and liposome (Pellet) fractions were resolved by SDS-PAGE. The gel was then stained with Quick Blue to detect the proteins. A lane containing recombinant tTG (Rec. tTG WT) was included as a standard.
To obtain the results depicted in FIG. 51, the following procedures were used. In vitro liposome fractionation assays—Synthetic liposomes were prepared from a lipid mixture containing 35% phosphatidylethanolamine, 25% phosphatidylserine, 5% phosphatidylinositol, and 35% cholesterol re-suspended in TBSM buffer (20 mM Tris, pH 7.5, 150 mM NaCl, and 2 mM MgCl2). The lipids were extruded through an 8 micron filter, pelleted by centrifugation at 13,000 rpm for 15 minutes, and re-suspended in TBSM buffer. Equal amounts of the lipid preparation were then incubated with either recombinant wild-type tTG or BSA for 15 minutes, followed by centrifugation at 13,000 rpm for 10 minutes at room temperature. […]

bovine serum albumin [BSA]
protein pelleted with synthetic liposomes: only weakly pelleted

From patent US20140079717A1, “Compositions and Methods to Prevent Cell Transformation and Cancer Metastasis” (CORNELL UNIVERSITY, priority 2011, published 2014)
